Reference: patent US20110105389A1 (priority 2009, published 2011)
Read-outs that look alike come from different tables or passages of the source.

Experiments:
[1] = biological target: T1, GHS-R1a receptor (HEK293 cells expressing GHS-R1a receptor) (Homo sapiens, UniProt Q92847); experiment: Fluorescence functional assay (ghrelin receptor), Method B2, agonist and antagonist mode; assay type: cell-based; conditions: functional activity as an antagonist at the ghrelin receptor, Methods B2 and B3
T1 construct: host or cells: HEK293
T1 sequence (Q92847 whole entry): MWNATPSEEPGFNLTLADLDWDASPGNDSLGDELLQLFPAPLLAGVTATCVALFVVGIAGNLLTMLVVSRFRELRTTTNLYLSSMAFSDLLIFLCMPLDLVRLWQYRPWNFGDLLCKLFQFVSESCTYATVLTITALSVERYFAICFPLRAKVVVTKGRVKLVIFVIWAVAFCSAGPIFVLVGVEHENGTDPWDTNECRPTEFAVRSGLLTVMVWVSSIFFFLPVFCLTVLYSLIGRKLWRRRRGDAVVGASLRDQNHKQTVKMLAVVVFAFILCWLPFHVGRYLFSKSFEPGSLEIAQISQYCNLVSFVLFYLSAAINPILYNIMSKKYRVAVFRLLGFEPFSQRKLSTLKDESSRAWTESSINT
How it was run: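 Calcium flux read by ImageTrak epifluorescence in HEK293 cells stably expressing GHS-R1a, loaded 1 h at 37 °C with Calcium-3 dye; buffer HBSS/20 mM Hepes, pH 7.4, with probenecid and BSA. Agonists injected after 10 s baseline, read 50 s more; antagonists 3 min. Sigmoidal fits gave EC50 or IC50.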

[2] = biological target: T2, human ghrelin receptor (GRLN, growth hormone secretagogue receptor, hGHS-R1a) (Homo sapiens, UniProt Q92847); experiment: Competitive radioligand binding assay (ghrelin receptor), Method B1
T2 construct: purchased PerkinElmer BioSignal #RBHGHSM, lot#1887; host or cells: HEK-293 cells, stably transfected (membranes)
T2 sequence (Q92847 whole entry): as above
How it was run: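 Membranes incubated with compound 30 min at rt in 25 mM Hepes pH 7.4, 1 mM CaCl2, 5 mM MgCl2, 2.5 mM EDTA, 0.4% BSA, max 0.1% DMSO; filtered on PEI-soaked GF/C, washed with cold Tris, scintillation counted. Curves fitted by variable-slope non-linear regression.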

[3] = Metabolic stability in human liver microsomes, Method B8; assay type: in vitro ADME; conditions: human liver microsomes 0.8 mg/mL, 5 μM compound, 37° C.
How it was run: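 Pooled human liver microsomes (15 mixed-sex donors) at 0.8 mg/mL in 100 mM potassium phosphate, pH 7.4, with 1.5 mM NADPH and 8 mM MgCl2. Compounds tested in duplicate at a single 5 μM (0.05% DMSO), incubated at 37° C.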

[4] = Ghrelin receptor binding activity, Method B1

| SMILES | Antagonist Activity [1] | IC50 [2] | HLM, metabolic stability in human liver microsomes [3] | IC50 [2, 4] |
| --- | --- | --- | --- | --- |
| Cc1cccc(C[C@H]2NC(=O)[C@H](C(C)O)N(C)C(=O)[C@H](C(C)C)NCCOc3ccccc3C[C@H](O)CNC2=O)c1 (stereo partly shown) [Compound 1453] | B (B = 1-10 nM) | 1 to 10 nM |  |  |
| CC(C)[C@@H]1NCCOc2ccccc2C[C@H](O)[C@@H](C)NC(=O)[C@@H](Cc2cccc(F)c2)NC(=O)[C@H](C(C)O)N(C)C1=O (stereo partly shown) [Compound 1503] | B (B = 1-10 nM) | 1 to 10 nM | 20.9 μL/min/mg protein |  |
| CC[C@@H]1CCc2ccc(F)cc2OCCN[C@@H](C(C)C)C(=O)N(C)[C@@H](C(C)O)C(=O)N[C@H](Cc2c[nH]c3ccccc23)C(=O)N1 (stereo partly shown) [Compound 1505] | B (B = 1-10 nM) | 1 to 10 nM | 51.5 μL/min/mg protein |  |
| CC(C)[C@@H]1NCCOc2ccccc2C#C[C@@H](C)NC(=O)[C@@H](Cc2ccccc2)NC(=O)[C@H](C(C)O)N(C)C1=O (stereo partly shown) [Compound 1688] | A (A <1 nM) | 1 to 10 nM | 41.4 μL/min/mg protein |  |
| CC(C)C1NCCOc2ccccc2C#CCNC(=O)C(Cc2c[nH]c3ccccc23)NC(=O)C(C(C)O)N(C)C1=O (stereo not shown) [Compound 1692] | C (C = 10-100 nM) |  | 121 μL/min/mg protein | 1 to 10 nM |
| CC(C)C1NCCOc2cc(F)ccc2C#CCNC(=O)C(Cc2c[nH]c3ccccc23)NC(=O)C(C(C)O)N(C)C1=O (stereo not shown) [Compound 1693] | C (C = 10-100 nM) |  | 83.8 μL/min/mg protein | 10 to 100 nM |
| CCC1CCc2ccc(F)cc2OCCNC(C2(C)CC2)C(=O)N(C)C(C(C)O)C(=O)NC(Cc2c[nH]c3ccccc23)C(=O)N1 (stereo not shown) [Compound 1703] | B (B = 1-10 nM) |  | 44.8 μL/min/mg protein | 1 to 10 nM |
| CC[C@@H]1C#Cc2ccc(F)cc2O[C@H](C)CN[C@@H](C2(C)CC2)C(=O)N(C)[C@@H](C(C)O)C(=O)N[C@H](Cc2c[nH]c3ccccc23)C(=O)N1 (stereo partly shown) [Compound 1707] | B (B = 1-10 nM) |  | 27.3 μL/min/mg protein | 10 to 100 nM |
| CC(C)[C@@H]1NCCOc2ccccc2C#CCNC(=O)[C@@H](Cc2ccccc2)NC(=O)[C@H](C(C)O)N(C)C1=O (stereo partly shown) [Compound 1712] |  | 1 to 10 nM | 58.2 μL/min/mg protein |  |
| CC(O)[C@H]1C(=O)N[C@H](Cc2c[nH]c3ccccc23)C(=O)N[C@H](C)C#Cc2ccccc2OCCN[C@@H](C2(C)CC2)C(=O)N1C (stereo partly shown) [Compound 1713] | B (B = 1-10 nM) |  | 48.8 μL/min/mg protein | 1 to 10 nM |
| CC[C@@H]1C#Cc2ccccc2O[C@H](C)CN[C@@H](C2(C)CC2)C(=O)N(C)[C@@H](C(C)O)C(=O)N[C@H](Cc2c[nH]c3ccccc23)C(=O)N1 (stereo partly shown) [Compound 1718] | B (B = 1-10 nM) |  | 43.6 μL/min/mg protein | 1 to 10 nM |
| CC(O)[C@H]1C(=O)N[C@H](Cc2c[nH]c3ccccc23)C(=O)N[C@H](C)CCc2ccc(F)cc2O[C@H](C)CN[C@@H](C2(C)CC2)C(=O)N1C (stereo partly shown) [Compound 1719] | C (C = 10-100 nM) |  | 23.4 μL/min/mg protein | 10 to 100 nM |
| CC(O)[C@H]1C(=O)N[C@H](Cc2c[nH]c3ccccc23)C(=O)N[C@H](C)C#Cc2ccc(F)cc2O[C@H](C)CN[C@@H](C2(C)CC2)C(=O)N1C (stereo partly shown) [Compound 1720] | B (B = 1-10 nM) |  | 23.2 μL/min/mg protein | 10 to 100 nM |
| CC[C@@H]1C#Cc2c(F)cccc2OCCN[C@@H](C(C)C)C(=O)N(C)[C@@H](C(C)O)C(=O)N[C@H](Cc2c[nH]c3ccccc23)C(=O)N1 (stereo partly shown) [Compound 1726] | B (B = 1-10 nM) |  | 41.5 μL/min/mg protein | 10 to 100 nM |
| CC[C@@H]1CCc2ccc(F)cc2OCCN[C@@H](C2(C)CC2)C(=O)N(C)[C@@H](C(C)O)C(=O)N[C@H](Cc2ccccc2)C(=O)N1 (stereo partly shown) [Compound 1746] | B (B = 1-10 nM) |  | 38.6 μL/min/mg protein | 1 to 10 nM |
| CC[C@@H]1CCc2ccc(F)cc2OCCN[C@@H](C(C)C)C(=O)N(C)[C@@H](C(C)O)C(=O)N[C@H](Cc2ccc(O)cc2)C(=O)N1 (stereo partly shown) [Compound 1751] | B (B = 1-10 nM) |  | 109.6 μL/min/mg protein | 1 to 10 nM |
| CC[C@@H]1C#Cc2ccccc2OCCN[C@@H](C(C)C)C(=O)N(C)[C@@H](C(C)O)C(=O)N[C@H](Cc2c[nH]c3ccccc23)C(=O)N1 (stereo partly shown) [Compound 1754] | B (B = 1-10 nM) |  | 43.7 μL/min/mg protein | 1 to 10 nM |
| CC[C@@H]1C#Cc2ccc(F)cc2OCCN[C@@H](C(C)C)C(=O)N(C)[C@@H](C(C)O)C(=O)N[C@H](Cc2c[nH]c3ccccc23)C(=O)N1 (stereo partly shown) [Compound 1755] | B (B = 1-10 nM) |  | 47.8 μL/min/mg protein | 1 to 10 nM |
| CC(C)[C@@H]1NCC2CCc3cccc(c3O2)CCCNC(=O)[C@@H](Cc2ccccc2)NC(=O)[C@H](C(C)O)N(C)C1=O (stereo partly shown) [Compound 1777] | B (B = 1-10 nM) |  | 39.6 μL/min/mg protein | 1 to 10 nM |
| CC(O)[C@H]1C(=O)N[C@H](Cc2ccccc2)C(=O)NCCCc2cccc3c2OC(CC3)CN[C@@H](C2CC2)C(=O)N1C (stereo partly shown) [Compound 1778] | B (B = 1-10 nM) | 10 to 100 nM | 58.1 μL/min/mg protein |  |
| CC[C@@H]1NCC2CCc3cccc(c3O2)CCCNC(=O)[C@@H](Cc2ccccc2)NC(=O)[C@H](C(C)O)N(C)C1=O (stereo partly shown) [Compound 1780] | B (B = 1-10 nM) | 10 to 100 nM | 25.3 μL/min/mg protein |  |
| CC(C)[C@@H]1NCCOc2ccccc2C2CCC(C2)NC(=O)[C@@H](Cc2c[nH]c3ccccc23)NC(=O)[C@H](C(C)O)N(C)C1=O (stereo partly shown) [Compound 1843] | A (A <1 nM) |  | 33.7 μL/min/mg protein | 10 to 100 nM |
| CC(C)[C@@H]1NCCOc2ccccc2C2CCC(C2)NC(=O)[C@@H](Cc2ccccc2)NC(=O)[C@H](C(C)O)N(C)C1=O (stereo partly shown) [Compound 1848] | A (A <1 nM) |  | 60.7 μL/min/mg protein |  |
| CC(O)[C@H]1C(=O)N[C@H](Cc2ccccc2)C(=O)NCC#Cc2c(F)cccc2OCCN[C@@H](C2(C)CC2)C(=O)N1C (stereo partly shown) [Compound 1876] | A (A <1 nM) | 1 to 10 nM | 30.9 μL/min/mg protein |  |
| CC(O)[C@H]1C(=O)N[C@H](Cc2ccccc2)C(=O)NCC#Cc2ccccc2OCCN[C@@H](C2(C)CC2)C(=O)N1C (stereo partly shown) [Compound 1878] | A (A <1 nM) | 1 to 10 nM | 34.7 μL/min/mg protein |  |
| CC(C)[C@@H]1NCCOc2ccccc2C2CCC(C2)NC(=O)[C@@H](Cc2ccc(F)cc2)NC(=O)[C@H](C(C)O)N(C)C1=O (stereo partly shown) [Compound 1903] | A (A <1 nM) |  | 47.9 μL/min/mg protein |  |
| CC(O)[C@H]1C(=O)N[C@H](Cc2ccccc2)C(=O)NCC#Cc2ccc(F)cc2OCCN[C@@H](C2(C)CC2)C(=O)N1C (stereo partly shown) [Compound 1918] | B (B = 1-10 nM) | 1 to 10 nM | 14.3 μL/min/mg protein |  |
| CC(C)[C@@H]1NCCOc2cccc(F)c2C#CCNC(=O)[C@@H](Cc2ccccc2)NC(=O)[C@H](C(C)O)N(C)C1=O (stereo partly shown) [Compound 1929] | B (B = 1-10 nM) | 1 to 10 nM |  |  |
